Reference: patent publication US10945435B2, “Imidazopyrimidine derivatives with sulfur containing phenyl and pyridyl substituents” (SYNGENTA PARTICIPATIONS AG, priority 2017, dated 2021)

Legend:
Type in all cases: in vivo
[1] = test system: Bemisia tabaci (Cotton White Fly); assay: Example B1 Bemisia tabaci feeding/contact activity; conditions: foliar, 144 h, application rate of 200 ppm, adult white flies on sprayed cotton leaf discs, 6 days after incubation
Experimental: Bemisia tabaci (Cotton White Fly): Feeding/Contact Activity
Cotton leaf discs were placed on agar in 24-well microtiter plates and sprayed with aqueous test solutions prepared from 10,000 ppm DMSO stock solutions. After drying the leaf discs were infested with adult white flies. The samples were checked for mortality 6 days after incubation.

[2] = test system: Diabrotica balteata (Corn Root Worm); assay: Example B2 Diabrotica balteata mortality and growth inhibition; conditions: 96 h, application rate of 200 ppm, L2 larvae on sprayed maize sprouts, 4 days after infestation, read-out: effect in at least one of the two categories (mortality or growth inhibition)
Experimental: Diabrotica balteata (Corn Root Worm)
(§1) Maize sprouts placed onto an agar layer in 24-well microtiter plates were treated with aqueous test solutions prepared from 10,000 ppm DMSO stock solutions by spraying. After drying, the plates were infested with L2 larvae (6 to 10 per well). The samples were assessed for mortality and growth inhibition in comparison to untreated samples 4 days after infestation.

[3] = test system: Diabrotica balteata (Corn Root Worm); assay: Example B4 Diabrotica balteata mortality; conditions: 96 h, application rate of 200 ppm, L2 larvae on sprayed maize sprouts, 4 days after infestation
Experimental: Diabrotica Balteata (Corn Root Worm):
as §1, with “mortality” for “mortality and growth inhibition in comparison to untreated samples”

[4] = test system: Euschistus heros (Neotropical Brown Stink Bug); assay: Example B5 Euschistus heros mortality and growth inhibition; conditions: 120 h, application rate of 200 ppm, N2 nymphs on sprayed soybean leaves, 5 days after infestation, read-out: effect in at least one of the two categories (mortality or growth inhibition)
Experimental: Euschistus heros (Neotropical Brown Stink Bug)
Soybean leaves on agar in 24-well microtiter plates were sprayed with aqueous test solutions prepared from 10,000 ppm DMSO stock solutions. After drying the leaves were infested with N2 nymphs. The samples were assessed for mortality and growth inhibition in comparison to untreated samples 5 days after infestation.

[5] = test system: Euschistus heros (Neotropical Brown Stink Bug); assay: Example B7 Euschistus heros feeding/contact activity; conditions: 120 h, application rate of 200 ppm, N2 nymphs on sprayed soybean leaves, 5 days after infestation
Experimental: Euschistus heros (Neotropical Brown Stink Bug): Feeding/Contact Activity
Soybean leaves on agar in 24-well microtiter plates were sprayed with aqueous test solutions prepared from 10,000 ppm DMSO stock solutions. After drying the leaves were infested with N2 nymphs. The samples were assessed for mortality 5 days after infestation.

[6] = test system: Frankliniella occidentalis (Western Flower Thrips); assay: Example B8 Frankliniella occidentalis feeding/contact activity; conditions: foliar, 168 h, application rate of 200 ppm, mixed-age population on sprayed sunflower leaf discs, 7 days after infestation
Experimental: Frankliniella occidentalis (Western Flower Thrips): Feeding/Contact Activity
Sunflower leaf discs were placed on agar in 24-well microtiter plates and sprayed with aqueous test solutions prepared from 10,000 DMSO stock solutions. After drying the leaf discs were infested with a Frankliniella population of mixed ages. The samples were assessed for mortality 7 days after infestation.

[7] = test system: Myzus persicae (Green Peach Aphid); assay: Example B9 Myzus persicae feeding/contact activity; conditions: foliar, 144 h, application rate of 200 ppm, mixed-age aphids on sprayed sunflower leaf discs, 6 days after infestation
Experimental: Myzus persicae (Green Peach Aphid): Feeding/Contact Activity
Sunflower leaf discs were placed onto agar in a 24-well microtiter plate and sprayed with aqueous test solutions prepared from 10,000 ppm DMSO stock solutions. After drying, the leaf discs were infested with an aphid population of mixed ages. The samples were assessed for mortality 6 days after infestation.

[8] = test system: Myzus persicae (Green Peach Aphid); assay: Example B10 Myzus persicae systemic activity; conditions: 144 h, test rate of 24 ppm, roots of infested pea seedlings in test solution, 6 days
Experimental: Myzus persicae (Green Peach Aphid). Systemic Activity
Roots of pea seedlings infested with an aphid population of mixed ages were placed directly into aqueous test solutions prepared from 10,000 DMSO stock solutions. The samples were assessed for mortality 6 days after placing seedlings into test solutions.

[9] = test system: Plutella xylostella (Diamond Back Moth); assay: Example B11 Plutella xylostella growth inhibition activity; conditions: 120 h, application rate of 200 ppm, L2 larvae on treated artificial diet, 5 days after infestation
Experimental: Plutella xylostella (Diamond Back Moth): Growth Inhibition Activity
24-well microtiter plates with artificial diet were treated with aqueous test solutions prepared from 10,000 ppm DMSO stock solutions by pipetting. After drying, the plates were infested with L2 larvae (10 to 15 per well). The samples were assessed for growth inhibition in comparison to untreated samples 5 days after infestation. Control of Plutella xylostella by a test sample is given when the growth inhibition is higher than the untreated sample.

[10] = test system: Plutella xylostella (Diamond Back Moth); assay: Example B12 Plutella xylostella feeding/contact activity; conditions: 120 h, application rate of 200 ppm, L2 larvae on treated artificial diet, 5 days after infestation
Experimental: Plutella xylostella (Diamond Back Moth): Feeding/Contact Activity
(§2) 24-well microtiter plates with artificial diet were treated with aqueous test solutions prepared from 10,000 ppm DMSO stock solutions by pipetting. After drying, the plates were infested with L2 larvae (10 to 15 per well). The samples were assessed for mortality 5 days after infestation.

[11] = test system: Plutella xylostella (Diamond Back Moth); assay: Example B13 Plutella xylostella mortality and growth inhibition; conditions: 120 h, application rate of 200 ppm, L2 larvae on treated artificial diet, 5 days after infestation, read-out: effect in at least one of the two categories (mortality or growth inhibition)
Experimental: Plutella xylostella (Diamond Back Moth)
as §2, with “mortality and growth inhibition in comparison to untreated samples” for “mortality”

[12] = test system: Spodoptera littoralis (Egyptian Cotton Leaf Worm); assay: Example B14 Spodoptera littoralis anti-feeding activity; conditions: foliar, 72 h, application rate of 200 ppm, L1 larvae on sprayed cotton leaf discs, 3 days after infestation, read-out: control (anti-feeding effect)
Experimental: Spodoptera littoralis (Egyptian Cotton Leaf Worm): Anti-Feeding Activity
(§3) Cotton leaf discs were placed onto agar in 24-well microtiter plates and sprayed with aqueous test solutions prepared from 10,000 ppm DMSO stock solutions. After drying the leaf discs were infested with five L1 larvae. The samples were assessed for anti-feeding effect in comparison to untreated samples 3 days after infestation. Control of Spodoptera littoralis by a test sample is given when the anti-feedant effect is higher than the untreated sample.

[13] = test system: Spodoptera littoralis (Egyptian Cotton Leaf Worm); assay: Example B15 Spodoptera littoralis growth inhibition activity; conditions: foliar, 72 h, application rate of 200 ppm, L1 larvae on sprayed cotton leaf discs, 3 days after infestation, read-out: control (growth inhibition)
Experimental: Spodoptera littoralis (Egyptian Cotton Leaf Worm): Growth Inhibition Activity
as §3, with “growth inhibition” for “anti-feeding effect”, “growth inhibition” for “anti-feedant effect”

[14] = test system: Spodoptera littoralis (Egyptian Cotton Leaf Worm); assay: Example B16 Spodoptera littoralis feeding/contact activity; conditions: foliar, 72 h, application rate of 200 ppm, L1 larvae on sprayed cotton leaf discs, 3 days after infestation
Experimental: Spodoptera littoralis (Egyptian Cotton Leaf Worm): Feeding/Contact Activity
Cotton leaf discs were placed onto agar in 24-well microtiter plates and sprayed with aqueous test solutions prepared from 10,000 ppm DMSO stock solutions. After drying the leaf discs were infested with five L1 larvae. The samples were assessed for mortality 3 days after infestation.

CCS(=N)(=O)c1cc(OC(C)(C)C#N)cnc1-c1cn2cnc(C(F)(F)C(F)(F)F)cc2n1 (centres unmarked) [Compound P19, 2-[[5-(ethylsulfonimidoyl)-6-[7-(1,1,2,2,2-pentafluoroethyl)imidazo[1,2-c]pyrimidin-2-yl]-3-pyridyl]oxy]-2-methyl-propanenitrile]
≥ 80%: mortality at 200 ppm [1] | percent effect (mortality or growth inhibition) at 200 ppm [2] | mortality at 200 ppm [3] | percent effect (mortality or growth inhibition) at 200 ppm [4] | mortality at 200 ppm [5] | mortality at 200 ppm [6] | mortality at 200 ppm [7] | mortality at 24 ppm [8] | inhibition at 200 ppm [9] | mortality at 200 ppm [10] | percent effect (mortality or growth inhibition) at 200 ppm [11] | pest or weed control at 200 ppm [12] | inhibition at 200 ppm [13] | mortality at 200 ppm [14]

CCS(=O)(=O)c1cc(OCC(F)F)cnc1-c1cn2cnc(SC(F)(F)F)cc2n1 [Compound P4, 2-[5-(2,2-difluoroethoxy)-3-ethylsulfonyl-2-pyridyl]-7-(trifluoromethylsulfanyl)imidazo[1,2-c]pyrimidine]
≥ 80%: mortality at 200 ppm [1] | percent effect (mortality or growth inhibition) at 200 ppm [2] | mortality at 200 ppm [3] | percent effect (mortality or growth inhibition) at 200 ppm [4] | mortality at 200 ppm [5] | mortality at 200 ppm [7] | inhibition at 200 ppm [9] | mortality at 200 ppm [10] | percent effect (mortality or growth inhibition) at 200 ppm [11] | pest or weed control at 200 ppm [12] | inhibition at 200 ppm [13] | mortality at 200 ppm [14]

CCS(=O)(=O)c1cc(OCSC)cnc1-c1cn2cnc(C(F)(F)F)cc2n1 [Compound P16, 2-[3-ethylsulfonyl-5-(methylsulfanylmethoxy)-2-pyridyl]-7-(trifluoromethyl)imidazo[1,2-c]pyrimidine]
≥ 80%: mortality at 200 ppm [1] | percent effect (mortality or growth inhibition) at 200 ppm [2] | mortality at 200 ppm [3] | percent effect (mortality or growth inhibition) at 200 ppm [4] | mortality at 200 ppm [5] | mortality at 200 ppm [6] | mortality at 200 ppm [7] | mortality at 24 ppm [8] | inhibition at 200 ppm [9] | percent effect (mortality or growth inhibition) at 200 ppm [11] | pest or weed control at 200 ppm [12] | mortality at 200 ppm [14]

CCS(=O)(=O)c1cc(OC(C)(C)C#N)cnc1-c1cn2cnc(C(F)(F)C(F)(F)F)cc2n1 [Compound P18, 2-[[5-ethylsulfonyl-6-[7-(1,1,2,2,2-pentafluoroethyl)imidazo[1,2-c]pyrimidin-2-yl]-3-pyridyl]oxy]-2-methyl-propanenitrile]
≥ 80%: mortality at 200 ppm [1] | percent effect (mortality or growth inhibition) at 200 ppm [2] | mortality at 200 ppm [3] | percent effect (mortality or growth inhibition) at 200 ppm [4] | mortality at 200 ppm [5] | mortality at 200 ppm [6] | mortality at 200 ppm [7] | inhibition at 200 ppm [9] | mortality at 200 ppm [10] | percent effect (mortality or growth inhibition) at 200 ppm [11] | pest or weed control at 200 ppm [12] | mortality at 200 ppm [14]

CCS(=O)(=O)c1cc(OC)cnc1-c1cn2cnc(SC(F)(F)F)cc2n1 [Compound P5, 2-(3-ethylsulfonyl-5-methoxy-2-pyridyl)-7-(trifluoromethylsulfanyl)imidazo[1,2-c]pyrimidine]
≥ 80%: percent effect (mortality or growth inhibition) at 200 ppm [2] | mortality at 200 ppm [3] | percent effect (mortality or growth inhibition) at 200 ppm [4] | mortality at 200 ppm [5] | mortality at 200 ppm [7] | mortality at 200 ppm [10] | percent effect (mortality or growth inhibition) at 200 ppm [11] | pest or weed control at 200 ppm [12] | inhibition at 200 ppm [13] | mortality at 200 ppm [14]

CCS(=O)(=O)c1cc(OC(C)(C)C(N)=O)cnc1-c1cn2cnc(C(F)(F)F)cc2n1 [Compound P12, 2-[[5-ethylsulfonyl-6-[7-(trifluoromethyl)imidazo[1,2-c]pyrimidin-2-yl]-3-pyridyl]oxy]-2-methyl-propanamide]
≥ 80%: percent effect (mortality or growth inhibition) at 200 ppm [4] | mortality at 200 ppm [5] | mortality at 200 ppm [7] | inhibition at 200 ppm [13]

CCS(=O)(=O)c1cc(OC(C)(C)C#N)cnc1-c1cn2cnc(SC(F)(F)F)cc2n1 [Compound P17, 2-[[5-ethylsulfonyl-6-[7-(trifluoromethylsulfanyl)imidazo[1,2-c]pyrimidin-2-yl]-3-pyridyl]oxy]-2-methyl-propanenitrile]
≥ 80%: mortality at 200 ppm [1] | percent effect (mortality or growth inhibition) at 200 ppm [2] | mortality at 200 ppm [3] | percent effect (mortality or growth inhibition) at 200 ppm [4] | mortality at 200 ppm [5] | mortality at 200 ppm [6] | mortality at 200 ppm [7] | mortality at 200 ppm [10] | percent effect (mortality or growth inhibition) at 200 ppm [11] | pest or weed control at 200 ppm [12] | inhibition at 200 ppm [13] | mortality at 200 ppm [14]

CCS(=O)(=O)c1cc(OC)cnc1-c1cn2cnc(C(F)(F)F)cc2n1 [Compound P9, 2-(3-ethylsulfonyl-5-methoxy-2-pyridyl)-7-(trifluoromethyl)imidazo[1,2-c]pyrimidine]
≥ 80%: percent effect (mortality or growth inhibition) at 200 ppm [2] | mortality at 200 ppm [3] | mortality at 200 ppm [7] | mortality at 24 ppm [8] | inhibition at 200 ppm [9] | mortality at 200 ppm [10] | percent effect (mortality or growth inhibition) at 200 ppm [11] | pest or weed control at 200 ppm [12] | inhibition at 200 ppm [13] | mortality at 200 ppm [14]
